Laboratory results from patent US20250312462A1, “PAK1 DEGRADERS AND METHODS OF USE THEREOF” (INSTITUTE FOR CANCER RESEARCH D/B/A THE RESEARCH INSTITUTE …, priority 2022, published 2025).

Key:
Assay in all cases: KINOMEscan
Details in all cases: read-out: Percent Control
AXL = AXL (Homo sapiens, UniProt P30530)
Method: (§1) The kinase engagement assay (KINOMEscan®) was performed by DiscoverX assessing binding abilities toward a set of kinases.

FLT3(K663Q) = FLT3(K663Q) (Homo sapiens, UniProt P36888, K663Q)
Method: as §1

MUSK = MUSK (Homo sapiens, UniProt O15146)
Method: as §1

CHEK2 = CHEK2 (Homo sapiens, UniProt O96017)
Method: as §1

FRK = FRK (Homo sapiens, UniProt P42685)
Method: as §1

MET = MET (Homo sapiens, UniProt P08581)
MET, sequence (P08581 25-1390): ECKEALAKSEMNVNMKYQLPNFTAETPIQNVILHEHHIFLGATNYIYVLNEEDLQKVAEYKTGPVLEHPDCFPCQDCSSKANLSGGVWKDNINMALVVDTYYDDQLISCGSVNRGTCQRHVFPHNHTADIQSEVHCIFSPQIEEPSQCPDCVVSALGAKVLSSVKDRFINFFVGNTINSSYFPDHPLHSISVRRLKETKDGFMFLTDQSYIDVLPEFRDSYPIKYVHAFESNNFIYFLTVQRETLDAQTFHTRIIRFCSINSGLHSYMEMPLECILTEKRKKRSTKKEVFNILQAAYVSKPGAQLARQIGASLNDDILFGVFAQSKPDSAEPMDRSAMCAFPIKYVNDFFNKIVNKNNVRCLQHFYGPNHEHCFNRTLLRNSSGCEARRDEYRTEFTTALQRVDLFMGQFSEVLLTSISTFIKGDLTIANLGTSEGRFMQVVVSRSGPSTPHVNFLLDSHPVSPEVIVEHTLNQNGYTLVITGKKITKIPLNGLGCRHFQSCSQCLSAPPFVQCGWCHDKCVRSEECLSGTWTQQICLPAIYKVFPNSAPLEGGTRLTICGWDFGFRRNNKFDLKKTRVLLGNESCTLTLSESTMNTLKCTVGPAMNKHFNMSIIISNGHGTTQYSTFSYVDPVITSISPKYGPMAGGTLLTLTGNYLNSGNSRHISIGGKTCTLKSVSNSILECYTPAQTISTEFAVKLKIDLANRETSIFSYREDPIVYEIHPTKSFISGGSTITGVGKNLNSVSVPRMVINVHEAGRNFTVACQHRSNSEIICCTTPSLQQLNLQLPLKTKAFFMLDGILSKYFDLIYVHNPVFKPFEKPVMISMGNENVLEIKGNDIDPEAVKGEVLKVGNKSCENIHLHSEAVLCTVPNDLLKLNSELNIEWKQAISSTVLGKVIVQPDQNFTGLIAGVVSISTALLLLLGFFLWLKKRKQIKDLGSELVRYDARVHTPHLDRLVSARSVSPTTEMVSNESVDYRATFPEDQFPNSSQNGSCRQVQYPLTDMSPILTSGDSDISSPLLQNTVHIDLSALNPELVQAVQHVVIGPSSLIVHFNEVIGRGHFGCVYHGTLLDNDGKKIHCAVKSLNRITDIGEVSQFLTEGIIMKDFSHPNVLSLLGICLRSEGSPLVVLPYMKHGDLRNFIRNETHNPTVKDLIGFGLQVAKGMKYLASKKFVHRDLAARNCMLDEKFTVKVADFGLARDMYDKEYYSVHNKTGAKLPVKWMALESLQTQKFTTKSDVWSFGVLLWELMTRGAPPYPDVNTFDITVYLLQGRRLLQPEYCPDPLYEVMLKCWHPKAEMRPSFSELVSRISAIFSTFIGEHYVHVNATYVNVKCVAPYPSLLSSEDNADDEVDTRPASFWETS
Method: as §1

TYRO3 = TYRO3 (Homo sapiens, UniProt Q06418)
Method: as §1

TSSK1B = TSSK1B (Homo sapiens, UniProt Q9BXA7)
Method: as §1

WNK1 = WNK1 (Homo sapiens, UniProt Q9H4A3)
Method: as §1

STK33 = STK33 (Homo sapiens, UniProt Q9BYT3)
Method: as §1

NIK = NIK (Homo sapiens, UniProt Q99558)
Method: as §1

GRK2 = GRK2 (Homo sapiens, UniProt P25098)
Method: as §1

LRRK2 = LRRK2 (Homo sapiens, UniProt Q5S007)
Method: as §1

[1] = biological target: EGFR(L747-S752del, P753S) (Homo sapiens, UniProt P00533, DEL747-752/P753S)
Method: as §1

ULK2 = ULK2 (Homo sapiens, UniProt Q8IYT8)
Method: as §1

CSNK1A1L = CSNK1A1L (Homo sapiens, UniProt Q8N752)
Method: as §1

MLK1 = MLK1 (Homo sapiens, UniProt P80192)
Method: as §1

AMPK-alpha1 = AMPK-alpha1 (Homo sapiens, UniProt Q13131)
Method: as §1

CDK4 = CDK4 (Homo sapiens, UniProt P11802)
Method: as §1

EGFR(L858R, T790M) = EGFR(L858R, T790M) (Homo sapiens, UniProt P00533, L858R/T790M)
Method: as §1

FLT4 = FLT4 (Homo sapiens, UniProt P35916)
Method: as §1

MYO3B = MYO3B (Homo sapiens, UniProt Q8WXR4)
Method: as §1

CDK5 = CDK5 (Homo sapiens, UniProt Q00535)
Method: as §1

GSK3B = GSK3B (Homo sapiens, UniProt P49841)
Method: as §1

EPHB4 = EPHB4 (Homo sapiens, UniProt P54760)
Method: as §1

PCTK3 = PCTK3 (Homo sapiens, UniProt Q07002)
Method: as §1

SYK = SYK (Homo sapiens, UniProt P43405)
Method: as §1

FGFR3(G697C) = FGFR3(G697C) (Homo sapiens, UniProt P22607, G697C)
Method: as §1

TAOK1 = TAOK1 (Homo sapiens, UniProt Q7L7X3)
TAOK1, sequence (Q7L7X3 whole entry): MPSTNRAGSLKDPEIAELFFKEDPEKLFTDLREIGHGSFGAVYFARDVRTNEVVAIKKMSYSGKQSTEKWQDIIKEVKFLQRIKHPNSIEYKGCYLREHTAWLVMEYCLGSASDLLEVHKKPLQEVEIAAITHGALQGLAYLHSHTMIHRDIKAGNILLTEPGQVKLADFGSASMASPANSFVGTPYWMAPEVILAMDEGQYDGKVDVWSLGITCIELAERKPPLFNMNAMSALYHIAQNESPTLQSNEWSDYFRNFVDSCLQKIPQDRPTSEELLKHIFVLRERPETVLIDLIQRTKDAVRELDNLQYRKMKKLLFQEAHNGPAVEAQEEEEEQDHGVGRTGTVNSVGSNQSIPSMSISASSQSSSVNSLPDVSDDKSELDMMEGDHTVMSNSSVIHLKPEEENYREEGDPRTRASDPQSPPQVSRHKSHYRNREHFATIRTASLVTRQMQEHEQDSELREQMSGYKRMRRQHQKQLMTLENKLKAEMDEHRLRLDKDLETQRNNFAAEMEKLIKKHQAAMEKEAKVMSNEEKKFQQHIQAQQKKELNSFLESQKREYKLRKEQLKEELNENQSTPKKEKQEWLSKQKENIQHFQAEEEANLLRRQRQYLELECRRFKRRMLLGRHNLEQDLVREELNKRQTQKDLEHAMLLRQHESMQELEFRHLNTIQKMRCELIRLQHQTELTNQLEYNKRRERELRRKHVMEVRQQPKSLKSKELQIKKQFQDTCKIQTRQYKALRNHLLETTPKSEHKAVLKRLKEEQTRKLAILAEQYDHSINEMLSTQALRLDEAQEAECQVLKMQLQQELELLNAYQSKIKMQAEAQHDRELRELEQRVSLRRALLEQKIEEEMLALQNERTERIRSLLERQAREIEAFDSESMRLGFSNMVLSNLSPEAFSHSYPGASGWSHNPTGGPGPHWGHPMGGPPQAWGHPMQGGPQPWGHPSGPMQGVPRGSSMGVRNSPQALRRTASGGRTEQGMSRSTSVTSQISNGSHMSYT
Method: as §1

LOK = LOK (Homo sapiens, UniProt O94804)
Method: as §1

MAP3K15 = MAP3K15 (Homo sapiens, UniProt Q6ZN16)
MAP3K15, sequence (Q6ZN16 whole entry): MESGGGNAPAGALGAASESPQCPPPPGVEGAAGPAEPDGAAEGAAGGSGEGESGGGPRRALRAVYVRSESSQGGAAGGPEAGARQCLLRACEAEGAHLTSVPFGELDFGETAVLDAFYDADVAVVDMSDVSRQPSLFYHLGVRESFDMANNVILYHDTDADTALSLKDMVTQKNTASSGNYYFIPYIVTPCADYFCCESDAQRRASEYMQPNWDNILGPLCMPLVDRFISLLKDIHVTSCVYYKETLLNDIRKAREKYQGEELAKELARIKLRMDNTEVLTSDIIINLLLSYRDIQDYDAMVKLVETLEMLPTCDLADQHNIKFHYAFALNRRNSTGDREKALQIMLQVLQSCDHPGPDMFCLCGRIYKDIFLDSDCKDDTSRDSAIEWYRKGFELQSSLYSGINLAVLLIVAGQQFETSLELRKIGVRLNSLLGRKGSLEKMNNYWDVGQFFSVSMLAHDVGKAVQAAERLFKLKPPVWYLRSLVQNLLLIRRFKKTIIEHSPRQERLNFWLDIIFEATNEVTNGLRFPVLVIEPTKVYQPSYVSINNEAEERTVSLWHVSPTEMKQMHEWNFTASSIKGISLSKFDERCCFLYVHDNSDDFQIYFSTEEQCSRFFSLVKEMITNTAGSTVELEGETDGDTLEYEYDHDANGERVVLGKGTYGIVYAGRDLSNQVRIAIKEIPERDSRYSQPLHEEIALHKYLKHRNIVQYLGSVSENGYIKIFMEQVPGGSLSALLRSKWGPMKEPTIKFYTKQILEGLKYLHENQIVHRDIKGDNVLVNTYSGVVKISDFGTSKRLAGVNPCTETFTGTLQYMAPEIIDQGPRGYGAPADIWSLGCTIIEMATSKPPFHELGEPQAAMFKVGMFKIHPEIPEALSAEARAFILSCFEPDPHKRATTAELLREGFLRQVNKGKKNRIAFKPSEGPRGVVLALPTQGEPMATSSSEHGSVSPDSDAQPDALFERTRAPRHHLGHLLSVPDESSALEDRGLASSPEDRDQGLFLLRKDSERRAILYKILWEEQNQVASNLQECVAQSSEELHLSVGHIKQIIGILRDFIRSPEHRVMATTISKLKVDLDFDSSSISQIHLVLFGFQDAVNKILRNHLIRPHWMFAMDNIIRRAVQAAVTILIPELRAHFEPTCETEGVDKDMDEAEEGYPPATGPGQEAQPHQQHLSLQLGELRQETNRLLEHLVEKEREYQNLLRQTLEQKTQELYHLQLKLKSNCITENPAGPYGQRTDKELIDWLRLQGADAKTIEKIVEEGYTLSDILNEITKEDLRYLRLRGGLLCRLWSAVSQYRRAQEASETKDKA
Method: as §1

PAK6 = PAK6 (Homo sapiens, UniProt Q9NQU5)
Method: as §1

[2] = biological target: RPS6KA4(Kin.Dom.2-C-terminal) (Homo sapiens, UniProt O75676)
Method: as §1

BTK = BTK (Homo sapiens, UniProt Q06187)
BTK, sequence (Q06187 whole entry): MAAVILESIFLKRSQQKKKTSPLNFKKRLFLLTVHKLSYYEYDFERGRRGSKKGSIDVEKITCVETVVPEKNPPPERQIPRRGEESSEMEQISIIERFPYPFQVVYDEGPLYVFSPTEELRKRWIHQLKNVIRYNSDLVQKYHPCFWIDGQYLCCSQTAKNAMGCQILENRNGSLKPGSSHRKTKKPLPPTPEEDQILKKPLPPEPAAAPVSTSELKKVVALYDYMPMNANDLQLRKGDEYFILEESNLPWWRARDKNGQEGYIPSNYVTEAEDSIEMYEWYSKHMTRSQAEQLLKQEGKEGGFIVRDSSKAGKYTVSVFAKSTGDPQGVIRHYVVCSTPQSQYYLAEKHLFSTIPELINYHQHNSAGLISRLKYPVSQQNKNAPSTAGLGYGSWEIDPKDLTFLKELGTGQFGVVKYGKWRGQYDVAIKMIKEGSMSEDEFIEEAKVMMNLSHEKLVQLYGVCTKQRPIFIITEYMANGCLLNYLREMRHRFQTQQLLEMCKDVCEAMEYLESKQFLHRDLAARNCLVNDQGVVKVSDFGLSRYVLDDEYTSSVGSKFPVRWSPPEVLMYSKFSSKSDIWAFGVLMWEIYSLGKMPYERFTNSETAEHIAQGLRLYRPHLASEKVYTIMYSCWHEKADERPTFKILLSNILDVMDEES
Method: as §1

DYRK1B = DYRK1B (Homo sapiens, UniProt Q9Y463)
Method: as §1

GRK7 = GRK7 (Homo sapiens, UniProt Q8WTQ7)
GRK7, sequence (Q8WTQ7 whole entry): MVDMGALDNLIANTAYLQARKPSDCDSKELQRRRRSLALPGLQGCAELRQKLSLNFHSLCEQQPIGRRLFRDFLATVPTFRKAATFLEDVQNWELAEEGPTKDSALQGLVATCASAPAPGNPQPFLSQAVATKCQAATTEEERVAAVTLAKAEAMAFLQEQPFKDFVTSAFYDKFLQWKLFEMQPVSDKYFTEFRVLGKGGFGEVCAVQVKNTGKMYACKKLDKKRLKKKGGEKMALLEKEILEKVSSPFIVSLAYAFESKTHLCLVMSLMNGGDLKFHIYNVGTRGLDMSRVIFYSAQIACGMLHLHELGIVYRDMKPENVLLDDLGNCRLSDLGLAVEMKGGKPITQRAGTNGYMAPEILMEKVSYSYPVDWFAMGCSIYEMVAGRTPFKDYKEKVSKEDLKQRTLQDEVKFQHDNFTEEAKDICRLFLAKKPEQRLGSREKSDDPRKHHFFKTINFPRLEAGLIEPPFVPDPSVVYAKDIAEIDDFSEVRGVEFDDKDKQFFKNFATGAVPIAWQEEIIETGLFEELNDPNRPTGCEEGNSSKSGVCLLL
Method: as §1

HIPK1 = HIPK1 (Homo sapiens, UniProt Q86Z02)
Method: as §1

MARK4 = MARK4 (Homo sapiens, UniProt Q96L34)
Method: as §1

How did the remaining binding at 10 µM (AXL) turn out when `O=C1CCC(N2C(=O)c3cccc(NCCCCCCCCNC(=O)N4CC[C@H](NC5=Nc6cc(F)ccc6N(CC(F)F)c6ccc(Cl)cc65)C4)c3C2=O)C(=O)N1` (stereo partly drawn) [BJG-05-039, (3S)-3-((2-Chloro-5-(2,2-difluoroethyl)-8-fluoro-5H-dibenzo[b,e][1,4]diazepin-11-yl)amino)-N-(8-((2-(2,6-dioxopiperidin-3-yl)-1,3-dioxoisoindolin-4-yl)amino)octyl)pyrrolidine-1-carboxamide] was run?
The remaining binding at 10 µM was 49%.

What about the remaining binding at 10 µM (FLT3(K663Q)) of the same compound?
The remaining binding at 10 µM was 59%.

And the remaining binding at 10 µM (MUSK)?
The remaining binding at 10 µM was 60%.

And the remaining binding at 10 µM (CHEK2)?
The remaining binding at 10 µM was 62%.

What about the remaining binding at 10 µM (FRK) of the same compound?
The remaining binding at 10 µM was 67%.

And the remaining binding at 10 µM (MET)?
The remaining binding at 10 µM was 68%.

What about the remaining binding at 10 µM (TYRO3) of the same compound?
The remaining binding at 10 µM was 72%.

And the remaining binding at 10 µM (TSSK1B)?
Its remaining binding at 10 µM is 73%.

What about the remaining binding at 10 µM (WNK1) of the same compound?
Its remaining binding at 10 µM is 74%.

And the remaining binding at 10 µM (STK33)?
The remaining binding at 10 µM was 75%.

What about the remaining binding at 10 µM (NIK) of the same compound?
Its remaining binding at 10 µM is 76%.

And the remaining binding at 10 µM (GRK2)?
Its remaining binding at 10 µM is 77%.

And the remaining binding at 10 µM (LRRK2)?
Its remaining binding at 10 µM is 80%.

And the remaining binding at 10 µM [1]?
Its remaining binding at 10 µM is 82%.

What about the remaining binding at 10 µM (ULK2) of the same compound?
The remaining binding at 10 µM was 82%.

What about the remaining binding at 10 µM (CSNK1A1L) of the same compound?
The remaining binding at 10 µM was 83%.

What about the remaining binding at 10 µM (MLK1) of the same compound?
Its remaining binding at 10 µM is 83%.

What about the remaining binding at 10 µM (AMPK-alpha1) of the same compound?
The remaining binding at 10 µM was 86%.

What about the remaining binding at 10 µM (CDK4) of the same compound?
The remaining binding at 10 µM was 86%.

And the remaining binding at 10 µM (EGFR(L858R, T790M))?
Its remaining binding at 10 µM is 86%.

What about the remaining binding at 10 µM (FLT4) of the same compound?
The remaining binding at 10 µM was 86%.

And the remaining binding at 10 µM (MYO3B)?
Its remaining binding at 10 µM is 88%.

And the remaining binding at 10 µM (CDK5)?
Its remaining binding at 10 µM is 90%.

What about the remaining binding at 10 µM (GSK3B) of the same compound?
Its remaining binding at 10 µM is 90%.

What about the remaining binding at 10 µM (EPHB4) of the same compound?
Its remaining binding at 10 µM is 91%.

What about the remaining binding at 10 µM (PCTK3) of the same compound?
Its remaining binding at 10 µM is 91%.

And the remaining binding at 10 µM (SYK)?
The remaining binding at 10 µM was 92%.

And the remaining binding at 10 µM (FGFR3(G697C))?
Its remaining binding at 10 µM is 95%.

And the remaining binding at 10 µM (TAOK1)?
Its remaining binding at 10 µM is 95%.

What about the remaining binding at 10 µM (LOK) of the same compound?
The remaining binding at 10 µM was 98%.

What about the remaining binding at 10 µM (MAP3K15) of the same compound?
The remaining binding at 10 µM was 99%.

What about the remaining binding at 10 µM (PAK6) of the same compound?
The remaining binding at 10 µM was 99%.

What about the remaining binding at 10 µM [2] of the same compound?
Its remaining binding at 10 µM is 99%.

What about the remaining binding at 10 µM (BTK) of the same compound?
Its remaining binding at 10 µM is 100%.

What about the remaining binding at 10 µM (DYRK1B) of the same compound?
The remaining binding at 10 µM was 100%.

And the remaining binding at 10 µM (GRK7)?
The remaining binding at 10 µM was 100%.

What about the remaining binding at 10 µM (HIPK1) of the same compound?
The remaining binding at 10 µM was 100%.

And the remaining binding at 10 µM (MARK4)?
Its remaining binding at 10 µM is 100%.
